Source: US10670605B2, “Cysteine reactive probes and uses thereof” (The Scripps Research Institute, priority 2015, dated 2020)

Assays:
Experiment in all cases: Competitive isoTOP-ABPP, cell lysates
Type in all cases: binding
USP22 C171 (Q9UPT9) = target: T1, USP22 C171 (Q9UPT9) (Homo sapiens, UniProt Q9UPT9); settings: for isoTOP-ABPP ratio (reactivity profile), Q9UPT9_C171: 500 μm in-vitro ramos
T1 sequence (Q9UPT9 1-525): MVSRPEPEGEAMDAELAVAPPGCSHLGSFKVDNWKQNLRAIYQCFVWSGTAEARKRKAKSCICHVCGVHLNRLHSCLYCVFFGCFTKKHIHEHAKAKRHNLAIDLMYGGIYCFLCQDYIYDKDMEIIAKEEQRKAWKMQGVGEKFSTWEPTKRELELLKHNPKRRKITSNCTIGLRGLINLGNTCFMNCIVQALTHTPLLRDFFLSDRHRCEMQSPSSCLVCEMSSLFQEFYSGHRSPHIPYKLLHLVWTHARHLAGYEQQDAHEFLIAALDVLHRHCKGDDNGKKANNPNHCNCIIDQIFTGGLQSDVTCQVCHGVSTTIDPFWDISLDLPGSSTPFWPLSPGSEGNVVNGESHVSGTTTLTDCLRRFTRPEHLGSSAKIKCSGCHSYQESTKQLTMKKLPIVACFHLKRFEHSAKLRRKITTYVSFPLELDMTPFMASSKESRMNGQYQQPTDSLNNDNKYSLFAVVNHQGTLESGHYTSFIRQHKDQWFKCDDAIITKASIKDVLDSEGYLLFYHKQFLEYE

SMARCC2 C145 (Q8TAQ2) = SMARCC2 C145 (Q8TAQ2) (Homo sapiens, UniProt Q8TAQ2); settings: for isoTOP-ABPP ratio (reactivity profile), Q8TAQ2_C145: 500 μm in-vitro ramos; for isoTOP-ABPP ratio Q8TAQ2_C145: 500 μM, invitro
IRF4 C194 (Q15306) = target: T2, IRF4 C194 (Q15306) (Homo sapiens, UniProt Q15306); settings: for isoTOP-ABPP ratio (reactivity profile), Q15306_C194: 500 μm in-vitro ramos
T2 sequence (Q15306 1-451): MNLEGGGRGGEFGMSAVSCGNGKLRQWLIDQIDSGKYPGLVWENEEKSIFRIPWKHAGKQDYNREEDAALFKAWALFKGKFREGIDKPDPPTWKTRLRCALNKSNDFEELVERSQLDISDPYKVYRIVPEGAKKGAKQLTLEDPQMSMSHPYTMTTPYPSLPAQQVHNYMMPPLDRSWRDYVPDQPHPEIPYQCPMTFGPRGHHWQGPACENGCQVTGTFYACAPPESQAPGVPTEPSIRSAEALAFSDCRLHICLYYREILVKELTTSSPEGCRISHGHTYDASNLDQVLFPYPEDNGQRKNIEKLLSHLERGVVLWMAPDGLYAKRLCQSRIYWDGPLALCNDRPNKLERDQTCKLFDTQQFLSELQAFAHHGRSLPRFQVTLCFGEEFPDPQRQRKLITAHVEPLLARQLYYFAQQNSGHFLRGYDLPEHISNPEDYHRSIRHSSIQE

ACAT1 C196 (P24752) = target: T3, ACAT1 C196 (P24752) (Homo sapiens, UniProt P24752); settings: for R value (DMSO/fragment): 250 μM, in vitro; for isoTOP-ABPP ratio, P24752_C196: 500 μM, invitro
T3 sequence (P24752 34-427): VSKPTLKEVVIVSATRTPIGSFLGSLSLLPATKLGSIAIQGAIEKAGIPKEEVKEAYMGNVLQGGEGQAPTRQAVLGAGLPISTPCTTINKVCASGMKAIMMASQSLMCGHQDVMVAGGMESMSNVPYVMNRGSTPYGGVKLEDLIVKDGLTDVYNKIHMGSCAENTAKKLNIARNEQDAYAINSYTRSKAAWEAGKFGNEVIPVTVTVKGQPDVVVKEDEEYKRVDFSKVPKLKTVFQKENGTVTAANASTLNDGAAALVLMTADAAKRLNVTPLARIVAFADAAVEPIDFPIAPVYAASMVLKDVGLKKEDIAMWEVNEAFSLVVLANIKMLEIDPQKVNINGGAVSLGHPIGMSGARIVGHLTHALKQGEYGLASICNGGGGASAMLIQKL

ACAT1 C126 (P24752) = target: T4, ACAT1 C126 (P24752) (Homo sapiens, UniProt P24752); settings: for R value (DMSO/fragment): 250 μM, in vitro; for isoTOP-ABPP ratio, P24752_C126: 500 μM, invitro
T4 sequence (P24752 34-427): T3 sequence (P24752 34-427)

ACAT1 C413 (P24752) = target: T5, ACAT1 C413 (P24752) (Homo sapiens, UniProt P24752); settings: for isoTOP-ABPP ratio P24752_C413: 500 μM, invitro
T5 sequence (P24752 34-427): T3 sequence (P24752 34-427)

ACAT1 C119 (P24752) = target: T6, ACAT1 C119 (P24752) (Homo sapiens, UniProt P24752); settings: for R value (DMSO/fragment): 250 μM, in vitro; for isoTOP-ABPP ratio P24752_C119: 500 μM, invitro
T6 sequence (P24752 34-427): T3 sequence (P24752 34-427)

CASP8 C360 (Q14790) = CASP8 C360 (Q14790) (Homo sapiens, UniProt Q14790); settings: 250 μM, in vitro, MDA-MB-231
CASP8 C360 (Q14790), sequence (Q14790 whole entry): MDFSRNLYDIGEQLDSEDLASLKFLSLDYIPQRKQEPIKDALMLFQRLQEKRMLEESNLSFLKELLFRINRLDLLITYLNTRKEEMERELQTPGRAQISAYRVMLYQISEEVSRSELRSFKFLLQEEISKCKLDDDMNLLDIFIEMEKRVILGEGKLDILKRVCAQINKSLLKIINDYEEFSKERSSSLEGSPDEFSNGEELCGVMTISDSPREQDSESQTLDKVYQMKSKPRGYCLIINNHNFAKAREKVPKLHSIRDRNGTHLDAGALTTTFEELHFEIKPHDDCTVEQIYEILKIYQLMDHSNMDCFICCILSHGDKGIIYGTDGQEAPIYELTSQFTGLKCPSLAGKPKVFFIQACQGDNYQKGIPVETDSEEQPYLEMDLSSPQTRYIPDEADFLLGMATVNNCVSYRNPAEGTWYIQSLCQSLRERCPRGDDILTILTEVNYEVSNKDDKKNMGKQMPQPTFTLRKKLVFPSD

SMARCC2 C145 (Q8TAQ2), sequence (Q8TAQ2 whole entry): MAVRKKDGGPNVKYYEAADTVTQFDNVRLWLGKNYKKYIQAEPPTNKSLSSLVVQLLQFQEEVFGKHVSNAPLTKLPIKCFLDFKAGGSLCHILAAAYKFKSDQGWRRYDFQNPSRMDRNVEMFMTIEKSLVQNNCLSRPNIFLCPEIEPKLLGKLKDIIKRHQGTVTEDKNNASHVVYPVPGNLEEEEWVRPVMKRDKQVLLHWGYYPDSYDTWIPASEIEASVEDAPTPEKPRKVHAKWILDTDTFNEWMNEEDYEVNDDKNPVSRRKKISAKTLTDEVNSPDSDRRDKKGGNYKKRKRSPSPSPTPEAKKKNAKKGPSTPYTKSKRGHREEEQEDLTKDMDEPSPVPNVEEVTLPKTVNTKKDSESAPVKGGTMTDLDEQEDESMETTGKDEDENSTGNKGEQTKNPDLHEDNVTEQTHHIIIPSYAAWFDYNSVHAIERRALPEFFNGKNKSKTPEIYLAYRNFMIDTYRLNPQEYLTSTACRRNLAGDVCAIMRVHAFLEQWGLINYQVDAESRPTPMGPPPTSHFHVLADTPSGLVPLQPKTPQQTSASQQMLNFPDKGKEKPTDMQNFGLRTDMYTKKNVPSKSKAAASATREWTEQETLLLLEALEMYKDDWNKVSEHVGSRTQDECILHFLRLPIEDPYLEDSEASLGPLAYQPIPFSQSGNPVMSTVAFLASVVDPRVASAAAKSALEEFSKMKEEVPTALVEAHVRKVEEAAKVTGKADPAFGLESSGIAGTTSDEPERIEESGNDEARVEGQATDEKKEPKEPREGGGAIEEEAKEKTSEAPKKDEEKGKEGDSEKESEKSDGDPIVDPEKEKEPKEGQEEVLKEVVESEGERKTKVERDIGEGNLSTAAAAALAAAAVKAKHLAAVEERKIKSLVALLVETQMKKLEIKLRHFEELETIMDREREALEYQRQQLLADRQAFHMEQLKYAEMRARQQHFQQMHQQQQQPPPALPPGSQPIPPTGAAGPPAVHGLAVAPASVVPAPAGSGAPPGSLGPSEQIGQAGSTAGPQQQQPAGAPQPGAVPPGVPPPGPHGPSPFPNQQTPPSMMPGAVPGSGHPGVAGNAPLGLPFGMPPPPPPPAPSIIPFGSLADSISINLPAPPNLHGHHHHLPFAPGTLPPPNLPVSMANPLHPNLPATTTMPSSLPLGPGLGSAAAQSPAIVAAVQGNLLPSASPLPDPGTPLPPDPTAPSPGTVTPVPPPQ

SMILES: O=C(/C=C/c1ccccc1)Nc1cc(C(F)(F)F)cc(C(F)(F)F)c1 [compound 26]
- isoTOP-ABPP ratio (reactivity profile), Q9UPT9_C171 (USP22 C171 (Q9UPT9)): 1.0
- isoTOP-ABPP ratio (reactivity profile), Q8TAQ2_C145 (SMARCC2 C145 (Q8TAQ2)): 0.9
- isoTOP-ABPP ratio (reactivity profile), Q15306_C194 (IRF4 C194 (Q15306)): 1.1
- isoTOP-ABPP ratio (reactivity profile), P24752_C196 (ACAT1 C196 (P24752); 500 μm in-vitro ramos): 1.0
- isoTOP-ABPP ratio (reactivity profile), P24752_C126 (ACAT1 C126 (P24752); 500 μm in-vitro ramos): 0.9
- isoTOP-ABPP ratio (reactivity profile), P24752_C413 (ACAT1 C413 (P24752); 500 μm in-vitro ramos): 0.9
- isoTOP-ABPP ratio (reactivity profile), P24752_C119 (ACAT1 C119 (P24752); 500 μm in-vitro ramos): 1.0

SMILES: COc1ccc(C2CC(c3cccs3)=NN2C(=O)CCl)cc1 (centres unmarked) [compound 4]
- R value (DMSO/fragment) (USP22 C171 (Q9UPT9); 250 μM, in vitro, Ramos): 4.0
- R value (DMSO/fragment) (SMARCC2 C145 (Q8TAQ2); 250 μM, in vitro, MDA-MB-231): 1.3
- R value (DMSO/fragment) (CASP8 C360 (Q14790)): 12.3
- R value (DMSO/fragment) (ACAT1 C196 (P24752); MDA-MB-231): 1.9
- R value (DMSO/fragment) (ACAT1 C196 (P24752); Ramos): 0.5
- R value (DMSO/fragment) (ACAT1 C126 (P24752); MDA-MB-231): 2.1
- R value (DMSO/fragment) (ACAT1 C126 (P24752); Ramos): 1.2
- R value (DMSO/fragment) (ACAT1 C413 (P24752); 250 μM, in vitro, MDA-MB-231): 3.3
- R value (DMSO/fragment) (ACAT1 C119 (P24752); MDA-MB-231): 1.8
- R value (DMSO/fragment) (ACAT1 C119 (P24752); Ramos): 0.2

SMILES: O=C(CCl)NC(=O)NC12CC3CC(CC(C3)C1)C2 [compound 12]
- isoTOP-ABPP ratio, Q9UPT9_C171 (USP22 C171 (Q9UPT9); 500 μM, invitro, ramos): 4.1
- isoTOP-ABPP ratio Q8TAQ2_C145 (SMARCC2 C145 (Q8TAQ2); 231): 2.8
- isoTOP-ABPP ratio Q8TAQ2_C145 (SMARCC2 C145 (Q8TAQ2); ramos): 1.6
- isoTOP-ABPP ratio, Q15306_C194 (IRF4 C194 (Q15306); 500 μM, invitro, ramos): 3.7
- isoTOP-ABPP ratio, P24752_C196 (ACAT1 C196 (P24752); 231): 1.2
- isoTOP-ABPP ratio, P24752_C196 (ACAT1 C196 (P24752); ramos): 0.9
- isoTOP-ABPP ratio, P24752_C126 (ACAT1 C126 (P24752); 231): 1.0
- isoTOP-ABPP ratio, P24752_C126 (ACAT1 C126 (P24752); ramos): 1.1
- isoTOP-ABPP ratio P24752_C413 (ACAT1 C413 (P24752); 231): 1.5
- isoTOP-ABPP ratio P24752_C413 (ACAT1 C413 (P24752); ramos): 1.1
- isoTOP-ABPP ratio P24752_C119 (ACAT1 C119 (P24752); 231): 1.0
- isoTOP-ABPP ratio P24752_C119 (ACAT1 C119 (P24752); ramos): 0.7

SMILES: O=C(CCl)N1CCOCC1 [compound 22]
- isoTOP-ABPP ratio (reactivity profile), Q9UPT9_C171 (USP22 C171 (Q9UPT9)): 1.1
- isoTOP-ABPP ratio (reactivity profile), Q8TAQ2_C145 (SMARCC2 C145 (Q8TAQ2)): 1.2
- isoTOP-ABPP ratio (reactivity profile), Q15306_C194 (IRF4 C194 (Q15306)): 1.1
- isoTOP-ABPP ratio (reactivity profile), P24752_C196 (ACAT1 C196 (P24752); 500 μm in-vitro ramos): 0.7
- isoTOP-ABPP ratio (reactivity profile), P24752_C196 (ACAT1 C196 (P24752); 500 μm in-vitro ramos_231): 1.4
- isoTOP-ABPP ratio (reactivity profile), P24752_C126 (ACAT1 C126 (P24752); 500 μm in-vitro ramos): 1.7
- isoTOP-ABPP ratio (reactivity profile), P24752_C126 (ACAT1 C126 (P24752); 500 μm in-vitro ramos_231): 2.4
- isoTOP-ABPP ratio (reactivity profile), P24752_C413 (ACAT1 C413 (P24752); 500 μm in-vitro ramos): 1.1
- isoTOP-ABPP ratio (reactivity profile), P24752_C413 (ACAT1 C413 (P24752); 500 μm in-vitro ramos_231): 1.1
- isoTOP-ABPP ratio (reactivity profile), P24752_C119 (ACAT1 C119 (P24752); 500 μm in-vitro ramos): 0.8
- isoTOP-ABPP ratio (reactivity profile), P24752_C119 (ACAT1 C119 (P24752); 500 μm in-vitro ramos_231): 1.0

SMILES: N#CC(=Cc1ccc(-c2ccccc2Cl)o1)C(N)=O [compound 42]
- isoTOP-ABPP reactivity profile ratio, Q9UPT9_C171 (USP22 C171 (Q9UPT9); 500 μm, in-vitro_ramos): 1.0
- isoTOP-ABPP reactivity profile ratio, Q8TAQ2_C145 (SMARCC2 C145 (Q8TAQ2); 500 μm, in-vitro_ramos): 1.0
- isoTOP-ABPP reactivity profile ratio, Q15306_C194 (IRF4 C194 (Q15306); 500 μm, in-vitro_ramos): 1.2
- isoTOP-ABPP reactivity profile ratio, P24752_C196 (ACAT1 C196 (P24752); 500 μm, in-vitro_ramos): 0.8
- isoTOP-ABPP reactivity profile ratio, P24752_C126 (ACAT1 C126 (P24752); 500 μm, in-vitro_ramos): 0.8
- isoTOP-ABPP reactivity profile ratio, P24752_C413 (ACAT1 C413 (P24752); 500 μm, in-vitro_ramos): 0.7
- isoTOP-ABPP reactivity profile ratio, P24752_C119 (ACAT1 C119 (P24752); 500 μm, in-vitro_ramos): 0.8
